The values below are quoted from earlier work in patent EP0005248A2, “Tetrapeptidehydrazide derivatives and process for their preparation” (Takeda Chemical Industries, Ltd., priority 1978, dated 1979).

For this series the following is noted: for analgesic action: intravenous administration.

Regarding H=ryr -Gly-Gly-Phe-Met-OH, the analgesic action result is reported as “do not have an analgesic action”. Also, where the note is “directly administered by the intracerebral route”, the morphinomimetic action result was “display a morphinemimetic action”. Turning to “β-Endorphin (YGGFMTSEKSQTPLVTLFKNAIIKNAYKKGE; Beta-endorphin; UniProt P01189 237-267, looked up)”, the analgesic action result is listed as “profound analgesic effects”.
